From patent US20160176880A1, “SUBSTITUTED IMIDAZO[1,2-A]PYRAZINECARBOXAMIDES AND USE THEREOF” (BAYER PHARMA AKTIENGESELLSCHAFT, priority 2013, published 2016)
Where a name gives a salt, the structure may show the parent alone.

Biological target: T1, recombinant guanylate cyclase reporter cell line (Rattus norvegicus, UniProt P19686+P20595)
T1 construct: expressed in transfected cells
T1 sequence (P19686 1-690): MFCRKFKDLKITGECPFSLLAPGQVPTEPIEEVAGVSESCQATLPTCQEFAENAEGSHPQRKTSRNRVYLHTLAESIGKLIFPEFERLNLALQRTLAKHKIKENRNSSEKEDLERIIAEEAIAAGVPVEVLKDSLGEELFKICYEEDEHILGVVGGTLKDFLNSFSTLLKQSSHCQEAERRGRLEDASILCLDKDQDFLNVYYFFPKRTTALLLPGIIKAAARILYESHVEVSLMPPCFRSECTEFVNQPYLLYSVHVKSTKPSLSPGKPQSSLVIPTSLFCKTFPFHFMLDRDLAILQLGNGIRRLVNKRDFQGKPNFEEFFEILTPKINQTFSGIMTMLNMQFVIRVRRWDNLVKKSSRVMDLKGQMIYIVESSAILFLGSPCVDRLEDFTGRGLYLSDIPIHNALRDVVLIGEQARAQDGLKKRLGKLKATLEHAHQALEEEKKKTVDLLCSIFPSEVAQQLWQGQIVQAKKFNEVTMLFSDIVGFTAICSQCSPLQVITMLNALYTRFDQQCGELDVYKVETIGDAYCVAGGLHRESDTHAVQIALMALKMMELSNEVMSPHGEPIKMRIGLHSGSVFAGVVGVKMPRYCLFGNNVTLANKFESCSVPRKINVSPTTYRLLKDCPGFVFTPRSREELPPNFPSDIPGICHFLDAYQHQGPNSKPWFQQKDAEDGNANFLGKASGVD
T1 sequence (P20595 1-619): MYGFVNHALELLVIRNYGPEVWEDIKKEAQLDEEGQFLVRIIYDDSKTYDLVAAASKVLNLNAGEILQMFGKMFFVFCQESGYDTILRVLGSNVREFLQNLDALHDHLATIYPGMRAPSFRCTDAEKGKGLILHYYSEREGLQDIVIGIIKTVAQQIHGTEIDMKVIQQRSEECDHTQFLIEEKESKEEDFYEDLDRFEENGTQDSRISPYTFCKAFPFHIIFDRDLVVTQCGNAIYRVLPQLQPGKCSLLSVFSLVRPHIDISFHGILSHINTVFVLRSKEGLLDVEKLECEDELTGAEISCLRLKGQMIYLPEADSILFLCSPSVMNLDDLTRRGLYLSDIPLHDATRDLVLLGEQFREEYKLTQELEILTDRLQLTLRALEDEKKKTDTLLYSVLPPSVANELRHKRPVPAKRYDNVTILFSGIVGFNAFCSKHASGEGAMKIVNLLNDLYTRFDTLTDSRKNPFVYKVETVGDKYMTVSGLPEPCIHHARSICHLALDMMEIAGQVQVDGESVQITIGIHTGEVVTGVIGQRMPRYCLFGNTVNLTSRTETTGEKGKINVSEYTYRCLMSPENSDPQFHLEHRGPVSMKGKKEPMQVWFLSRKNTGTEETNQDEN
Experiment: Effect on a recombinant guanylate cyclase reporter cell line
Type: cell-based
Settings: MEC = minimum effective concentration; in some cases mean values for individual determinations
Description: B-2. Effect on a Recombinant Guanylate Cyclase Reporter Cell Line
The cellular action of the compounds of the invention is determined using a recombinant guanylate cyclase reporter cell line, as described in F. Wunder et al., Anal. Biochem. 339, 104-112 (2005).
Representative MEC values (MEC=minimum effective concentration) for the compounds of the invention are shown in the table below (in some cases as mean values for individual determinations): […]

SMILES	MEC
Cc1cn2c(C(=O)NCC(C)(N)CC(C)C)c(C)nc2c(OCc2c(F)cccc2F)n1 (racemic) [Example 5, rac-N-(2-Amino-2,4-dimethylpentyl)-8-[(2,6-difluorobenzyl)oxy]-2,6-dimethylimidazo[1,2-a]pyrazine-3-carboxamide]	1 µM
Cc1cn2c(C(=O)NC(C)C#N)c(C)nc2c(OCc2c(F)cccc2F)n1 (racemic) [Example 14, rac-N-(1-cyanoethyl)-8-[(2,6-difluorobenzyl)oxy]-2,6-dimethylimidazo[1,2-a]pyrazine-3-carboxamide]	3 µM
Cc1cn2c(C(=O)NC3CC3c3ccccc3)c(C)nc2c(OCc2c(F)cccc2F)n1 (racemic) [Example 17, rac-8-[(2,6-difluorobenzyl)oxy]-2,6-dimethyl-N-(2-phenylcyclopropyl)imidazo[1,2-a]pyrazine-3-carboxamide]	10 µM
Cc1cn2c(C(=O)NCC(C)(N)C3CC3)c(C)nc2c(OCc2c(F)cccc2F)n1 (racemic) [Example 20, rac-N-(2-amino-2-cyclopropylpropyl)-8-[(2,6-difluorobenzyl)oxy]-2,6-dimethylimidazo[1,2-a]pyrazine-3-carboxamide]	3 µM
Cc1cn2c(C(=O)NC(C)c3nc(C(F)(F)F)no3)c(C)nc2c(OCc2c(F)cccc2F)n1 (racemic) [Example 26, rac-8-[(2,6-difluorobenzyl)oxy]-2,6-dimethyl-N-{1-[3-(trifluoromethyl)-1,2,4-oxadiazol-5-yl]ethyl}imidazo[1,2-a]pyrazine-3-carboxamide]	3 µM
Cc1cn2c(C(=O)NC(C)COCC(F)(F)F)c(C)nc2c(OCc2c(F)cccc2F)n1 (racemic) [Example 31, rac-8-[(2,6-difluorobenzyl)oxy]-2,6-dimethyl-N-[1-(2,2,2-trifluoroethoxy)propan-2-yl]imidazo[1,2-a]pyrazine-3-carboxamide]	3 µM
Cc1cn2c(C(=O)NCC(C)(N)CF)c(C)nc2c(OCc2c(F)cccc2F)n1 (single isomer, unassigned; enantiomer b) [Example 37, ent-N-(2-Amino-3-fluoro-2-methylpropyl)-8-[(2,6-difluorobenzyl)oxy]-2,6-dimethylimidazo[1,2-a]pyrazine-3-carboxamide (enantiomer B)]	0.3 µM

More lines, now with the values ahead:

MEC	SMILES
1.0 µM	Cc1cn2c(C(=O)NCC3CCC(C#N)CC3)c(C)nc2c(OCc2c(F)cccc2F)n1 (mixture of isomers) [Example 50, N-[(4-cyanocyclohexyl)methyl]-8-[(2,6-difluorobenzyl)oxy]-2,6-dimethylimidazo[1,2-a]pyrazine-3-carboxamide trifluoroacetate (cis/trans mixture)]
1.0 µM	Cc1cn2c(C(=O)NNC3CCCC3O)c(C)nc2c(OCc2c(F)cccc2F)n1 (mixture of isomers) [Example 54, 8-[(2,6-difluorobenzyl)oxy]-N′-(2-hydroxycyclopentyl)-2,6-dimethylimidazo[1,2-a]pyrazine-3-carbohydrazide trifluoroacetate (mixture of stereoisomers)]
10 µM	Cc1cn2c(C(=O)NC(C#N)c3ccc(Cl)cc3)c(C)nc2c(OCc2c(F)cccc2F)n1 (racemic) [Example 46, rac-N-[(4-chlorophenyl)(cyano)methyl]-8-[(2,6-difluorobenzyl)oxy]-2,6-dimethylimidazo[1,2-a]pyrazine-3-carboxamide]
0.65 µM	Cc1cn2c(C(=O)NCC(C)(N)CC(F)F)c(C)nc2c(OCc2c(F)cccc2F)n1 (single isomer, unassigned; enantiomer a) [Example 41, ent-N-(2-Amino-4,4-difluoro-2-methylbutyl)-8-[(2,6-difluorobenzyl)oxy]-2,6-dimethylimidazo[1,2-a]pyrazine-3-carboxamide (enantiomer A)]
